Laboratory results published in patent publication US6451341B1, “Time release formulation of vitamins, minerals and other beneficial supplements” (priority 1990, dated 2002).

How the values were obtained:
skin cancer = assay: Mouse skin carcinogenesis system; format: in vivo; conditions: given alone
skin tumors = assay: Effects of antioxidants on skin tumor promotion (DMBA initiation + TPA promotion), antioxidants applied with TPA; format: in vivo, mice (SENCAR); conditions: 30 weeks
Source text: In one important aspect of the present invention, the formulation includes at least one antioxidant. The antioxidant is preferably selected from the group consisting of butylated hydroxyanisole, butylated hydroxytoluene and propyl gallate. The inventive formulation may include one, or, more preferably, several of the preferred antioxidants in combination. According to one embodiment, the inventive formulation includes butylated hydroxyanisole (BHA) or butylated hydroxytoluene (BHT), and propyl gallate. BHA, BHT and propyl gallate are all antioxidants used to stabilize cosmetic, pharmaceutical, and food products. It has been reported that these agents protect normal cells against radiation, free radicals, toxic chemicals and chemical carcinogens. […] The SENCAR mouse is a valid testing system for the ability of a compound to inhibit tumor initiation and promotion. A good dose-response relationship exists for 7, 12-dimethylbenzanthracene to initiate skin tumors in these mice and they are sensitive to TPA (12-0-tetradecanoylphorbol-13-acetate) promotion [Slaga(1983) “Multistage Skin Carcinogenesis and Specificity of Inhibitors” in: Modulation and Mediation of Cancer by Vitamins, pp. 10-23.]. Further, the preferred antioxidants of the present invention have been reported to protect against cardiovascular disorders, enhance immune function and increase longevity. The preferred antioxidants of the present invention work synergistically with several vitamins, minerals, amino acids, enzymes, and other antioxidants or free radial scavengers included in the formulation of the present invention as will be described in detail below.

spontaneous tumors = assay: Effects of antioxidants in the diet on aging and spontaneous tumor formation in mice; format: in vivo; conditions: 0.5% in normal laboratory chow; 100 SENCAR mice per group
Source text: Table 2 illustrates the effects of certain antioxidant components of the present formulation on all the known spontaneous tumor formations and longevity in mice.

[1] = 0.5 mg applied simultaneously with TPA 2x/wk, 30 female SENCAR mice

Row | Molecule | Tumor Response (% Inhibition) (skin tumors; [1]) | Increase in Lifespan (%) (spontaneous tumors) | Spontaneous Tumor Formation (% of Control) (spontaneous tumors) | further results
1 | CC1=C(/C=C/C(C)=C/C=C/C(C)=C/C=C/C=C(C)/C=C/C=C(C)/C=C/C2=C(C)CCCC2(C)C)C(C)(C)CCC1 [B-carotene, Beta carotene] | 20 % Inhibition | – | – | inhibitory activity in mouse skin carcinogenesis (skin cancer): lack of an inhibitory activity
2 | COc1ccc(O)c(C(C)(C)C)c1 [BHA, butylated hydroxyanisole] | 35 % Inhibition | 132% | 46 % of Control | –
3 | Cc1cc(C(C)(C)C)c(O)c(C(C)(C)C)c1 [BHT, butylated hydroxytoluene] | 32 % Inhibition | 124% | 56 % of Control | –
4 | CCCOC(=O)c1cc(O)c(O)c(O)c1 [Propyl gallate, propyl gallate] | 40 % Inhibition | 127% | 62 % of Control | –
5 | [Se] [Selenium] | – | – | – | Tumor Response (% Inhibition) (skin tumors; 0.004 mg applied simultaneously with TPA 2x/wk): 23 % Inhibition
6 | O=C1O[C@H]([C@@H](O)CO)C(O)=C1O [Vitamin C] | 30 % Inhibition | – | – | –
7 | Vitamin E | – | – | – | Tumor Response (% Inhibition) (skin tumors; 0.1 mg applied simultaneously with TPA 2x/wk): 25 % Inhibition
